Measurements published in US8815852B2, “Carbamoyloxy arylalkan arylpiperazine analgesics” (SK Biopharmaceuticals Co., Ltd., priority 2007, dated 2014).

Test system: male ICR mouse
Assay: Acetic acid-induced writhing test in mouse
Assay type: in vivo
Conditions: Mus musculus, po, 1 h, at 10 po (method: 10 mg/kg oral, 1 hour before acetic acid); read-out: AA Writhing: Suppression ratio of Pain response
Description: 2. Acetic Acid-Induced Writhing Test in Mouse
An acetic acid-induced writhing test is one of models for measuring an analgesic effect of drugs. A test material dissolved in a suitable vehicle was orally administered to a male ICR mouse weighing 30 to 35 g at an amount of 10 mg/kg. After 1 hour of the oral administration, […] of an aqueous 0.8% acetic acid solution was intraperitoneally injected into the male ICR mouse to induce the abdominal pain of the male ICR mouse. Right after the administration of acetic acid, the male ICR mouse was put into an empty cage, and the number of writhing behaviors of the mice was counted for 10 minutes. The term “writhing represents a reflex action in which the mouse overtly extends its abdomen by stretching its hind legs due to the abdominal pain. The analgesic effect of the test material is represented by the ‘suppression ratio of pain response’ {[(Writhing number of Vehicle-administered group−Writhing number of Test material-administered group)/(Writhing number of Vehicle-administered group)]×100%} or 50% of Effective amount (ED50 (median effective dose); an amount of test material that is required to suppress 50% of pain behaviors) of Test material. The ED50 (median effective dose) was determined by calculating the suppression ratio of pain response in at least three doses of test materials and subjecting to the linear regression.

Going from `Cc1ccc(N2CCN(CCC(OC(N)=O)c3ccccc3)CC2)cc1C` (stereo not shown) [Example 29, Carbamic acid 3-[4-(3,4-dimethyl-phenyl)-piperazin-1-yl]-1-phenyl-propyl ester] to `Cc1ccc(N2CCN(CCC(OC(N)=O)c3ccccc3)CC2)c(C)c1` (stereo not shown) [Example 13, Carbamic acid 3-[4-(2,4-dimethyl-phenyl)-piperazin-1-yl]-1-phenyl-propyl ester], the inhibition in vivo at 10 mg/kg falls from 99% to 34%.

First: COc1ccc(N2CCN(CCC(OC(N)=O)c3ccc4ccccc4c3)CC2)cc1 (stereo not shown) [Example 49, Carbamic acid 3-[4-(4-methoxy-phenyl)-piperazin-1-yl]-1-naphthalen-2-yl-propyl ester]
Second: COc1ccc(C(CCN2CCN(c3ccc(OC)cc3)CC2)OC(N)=O)cc1 (stereo not shown) [Example 47, Carbamic acid 1-(4-methoxy-phenyl)-3-[4-(4-methoxy-phenyl)-piperazin-1-yl]-propyl ester]
The inhibition in vivo at 10 mg/kg of the first is higher: 64% for the first, 53% for the second.

Compared with `COc1ccc(N2CCN(CCC(OC(N)=O)c3ccc(Cl)cc3)CC2)cc1` (stereo not shown) [Example 71, Carbamic acid 1-(4-chloro-phenyl)-3-[4-(4-methoxy-phenyl)-piperazin-1-yl]-propyl ester], `COc1ccc(N2CCN(CCC(OC(N)=O)c3ccc(C(F)(F)F)cc3)CC2)cc1` (stereo not shown) [Example 66, Carbamic acid 3-[4-(4-methoxy-phenyl)-piperazin-1-yl]-1-(4-trifluoromethyl-phenyl)-propyl ester] is higher in inhibition in vivo at 10 mg/kg: 61% for the first, 95% for the second.

Compared with `CC(CC(OC(N)=O)c1ccccc1)N1CCN(c2ccc(F)cc2F)CC1` (stereo not shown) [Example 116, Carbamic acid 3-[4-(2,4-difluoro-phenyl)-piperazin-1-yl]-1-phenyl-butyl ester], `CC(CC(OC(N)=O)c1ccccc1)N1CCN(c2ncc(Cl)cc2Cl)CC1` (stereo not shown) [Example 114] is lower in inhibition in vivo at 10 mg/kg: 87% for the first, 39% for the second.

Going from `NC(=O)OC(CCN1CCN(c2ccc(Cl)c(C(F)(F)F)c2)CC1)c1ccccc1` (stereo not shown) [Example 18, Carbamic acid 3-[4-(4-chloro-3-trifluoromethyl-phenyl)-piperazin-1-yl]-1-phenyl-propyl ester] to `COc1ccc(Cl)cc1N1CCN(CCC(OC(N)=O)c2ccccc2)CC1` (stereo not shown) [Example 32, Carbamic acid 3-[4-(5-chloro-2-methoxy-phenyl)-piperazin-1-yl]-1-phenyl-propyl ester], the inhibition in vivo at 10 mg/kg falls from 52% to 23%.

First: NC(=O)OC(CCN1CCN(c2ccc(OC(=O)OCc3ccccc3)cc2)CC1)c1ccc(F)cc1 (stereo not shown) [Example 91, Carbonic acid benzyl ester 4-{4-[3-carbamoyloxy-3-(4-fluoro-phenyl)-propyl]-piperazin-1-yl}-phenyl ester]
Second: COc1ccc(N2CCN(CCC(OC(N)=O)c3ccccc3[N+](=O)[O-])CC2)cc1 (stereo not shown) [Example 64, Carbamic acid 3-[4-(4-methoxy-phenyl)-piperazin-1-yl]-1-(2-nitro-phenyl)-propyl ester]
The inhibition in vivo at 10 mg/kg of the first is lower: 45% for the first, 59% for the second.

First: COc1ccc(N2CCN(CCC(OC(N)=O)c3ccccc3)CC2)c(OC)c1 (stereo not shown) [Example 17, Carbamic acid 3-[4-(2,4-dimethoxy-phenyl)-piperazin-1-yl]-1-phenyl-propyl ester]
Second: COc1ccc(N2CCN(CCC(OC(N)=O)c3cccc(C(F)(F)F)c3)CC2)cc1 (stereo not shown) [Example 68, Carbamic acid 3-[4-(4-methoxy-phenyl)-piperazin-1-yl]-1-(3-trifluoromethyl-phenyl)-propyl ester]
The inhibition in vivo at 10 mg/kg of the first is lower: 19% for the first, 48% for the second.

Same assay, conditions: Mus musculus; po; unit not given (method doses in mg/kg); read-out: AA Writhing: ED50

Compared with `COc1ccc(N2CCN(CCC(OC(N)=O)c3ccc(F)cc3)CC2)cc1` (stereo not shown) [Example 77, Carbamic acid 1-(4-fluoro-phenyl)-3-[4-(4-methoxy-phenyl)-piperazin-1-yl]-propyl ester], `NC(=O)OC(CCN1CCN(c2ccc(O)cc2)CC1)c1ccc(F)cc1` (stereo not shown) [Example 88, Carbamic acid 1-(4-fluoro-phenyl)-3-[4-(4-hydroxy-phenyl)-piperazin-1-yl]-propyl ester] is 1.7-fold lower in ED50: 12.4 mg/kg for the first, 7.24 mg/kg for the second.
